17 compounds from patent US20230144901A1, “SORTILIN ANTAGONISTS FOR USE IN THE TREATMENT OF DIABETIC RETINOPATHY” (Insusense ApS, priority 2020, published 2023) can be followed below.

The structures appear in SMILES notation.

The subject of one test is light sensitive cells of the retina in mice. Description: Diabetic mouse model: flash electroretinography (fERG) before and 8 weeks after STZ induction of diabetes. The following applies: intravitreal 2 μl of a 1 μg/μl solution, versus vehicle control group. The class given is in vivo. The protocol:
Flash electroretinography (fERG) was used to measure the electrical response of the light sensitive cells of the retina in mice both prior to streptozocin (STZ) induction of diabetes (baseline) and 8 weeks after induction. Mice were exposed to increasing intensities of light flashes and the resulting electrical responses, measured in amplitude, were recorded. The skilled person will recognise that a cell with a higher measured amplitude is indicative of a healthy cell whilst cells with lower amplitudes is indicative of a damaged cell which is no longer functioning optimally. In the experimental group, the mice were administered with a polyclonal anti-sortilin antibody (2 ul of a 1 μg/μl solution in Dulbecco's Phosphate buffered saline) by intravitrial administration whereas in the control group the mice were administered with the vehicle only (Dulbecco's Phosphate buffered saline). All other variables, such as food intake, diet, exercise levels and exposure to environmental enrichment were kept the same between the two groups.
Turning to `Cc1cccc(NC(=O)c2ccc(C(F)(F)F)cc2C(=O)O)n1` [Example 8, 2-[(6-methylpyridin-2-yl)carbamoyl]-5-(trifluoromethyl)benzoic acid], the “reduction in the fERG response (a wave and b wave) 8 weeks after induction compared to the baseline” value is on record as “smaller for the experimental group compared to the control group”.

Staying with this test, now noted: intravitreal, fERG 8 weeks after induction.
Consider `Cc1cccc(NC(=O)c2ccc(C(F)(F)F)cc2C(=O)O)n1` [Example 8, 2-[(6-methylpyridin-2-yl)carbamoyl]-5-(trifluoromethyl)benzoic acid], for which the “protective effect on retinal cells compared with the polyclonal antibody of the first study” value is “greater than that of the polyclonal antibody”.

A further test has as its target T1, hSortilin (Homo sapiens, UniProt Q99523).
T1 sequence (Q99523 78-831): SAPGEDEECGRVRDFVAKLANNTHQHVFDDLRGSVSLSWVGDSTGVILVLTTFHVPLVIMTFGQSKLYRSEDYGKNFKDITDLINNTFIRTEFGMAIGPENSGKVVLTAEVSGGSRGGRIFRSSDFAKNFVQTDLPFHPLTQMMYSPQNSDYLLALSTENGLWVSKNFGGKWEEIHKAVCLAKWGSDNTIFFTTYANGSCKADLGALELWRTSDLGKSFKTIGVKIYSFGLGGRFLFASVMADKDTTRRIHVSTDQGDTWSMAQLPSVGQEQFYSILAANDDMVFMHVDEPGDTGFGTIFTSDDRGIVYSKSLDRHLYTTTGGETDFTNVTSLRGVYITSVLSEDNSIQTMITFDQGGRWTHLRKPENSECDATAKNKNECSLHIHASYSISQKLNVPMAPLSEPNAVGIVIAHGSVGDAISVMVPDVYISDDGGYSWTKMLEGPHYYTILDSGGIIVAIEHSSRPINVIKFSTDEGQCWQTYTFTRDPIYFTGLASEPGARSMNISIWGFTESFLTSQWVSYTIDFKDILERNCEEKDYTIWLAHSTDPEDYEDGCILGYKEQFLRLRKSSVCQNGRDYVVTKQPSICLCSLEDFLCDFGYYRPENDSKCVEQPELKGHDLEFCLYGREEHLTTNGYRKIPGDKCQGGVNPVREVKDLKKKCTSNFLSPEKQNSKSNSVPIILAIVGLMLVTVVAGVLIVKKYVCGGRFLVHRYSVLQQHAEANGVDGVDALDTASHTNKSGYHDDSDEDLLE
In words: Neurotensin (NTS) scintillation proximity assay (SPA): displacement of 3H-neurotensin binding to hSortilin. Conditions: 150 nM 6his-Sortilin, 5 nM [3H]-Neurotensin; average of at least 4 determinations. A general note: In a scintillation proximity assay essentially only radioactivity close to the scintillant gives light.
Usually IC50 stands for the concentration needed to halve the response being measured. Turning to `Cc1cccc(NC(=O)c2ccc(Br)cc2C(=O)O)c1` [Example 20, 5-bromo-2-[(3-methylphenyl)carbamoyl]benzoic acid], the IC50 was 5.2 µM.

For the compound `O=C(O)c1cc(C(F)(F)F)ccc1C(=O)Nc1ccc2c(n1)CCCC2` [Example 30, 2-[(5,6,7,8-tetrahydroquinolin-2-yl)carbamoyl]-5-(trifluoromethyl)benzoic acid], the IC50 was found to be 0.1 µM.

`Cc1cccc(NC(=O)c2ccc([N+](=O)[O-])cc2C(=O)O)n1` [Example 9, 2-[(6-methylpyridin-2-yl)carbamoyl]-5-nitrobenzoic acid]: the IC50 is 1.7 µM.

`Cc1cccc(NC(=O)c2ccc(Br)cc2C(=O)O)n1` [Example 1, 5-bromo-2-[(6-methylpyridin-2-yl)carbamoyl]benzoic acid] yielded an IC50 of 0.71 µM.

In the case of `Cc1cccc(NC(=O)c2cc(Br)ccc2C(=O)O)n1` [Example 2, 4-bromo-2-[(6-methylpyridin-2-yl)carbamoyl]benzoic acid], the concentration for half-maximal inhibition (IC50) is 12 µM.

The same test, now with this note: read-out: % inhibition at 50 μM; NTS SPA, compound at 50 μM (footnote *).
A word on the inhibition: it is the share of the control response that was lost under treatment. `Cc1ccc(NC(=O)c2ccc(Br)cc2C(=O)O)cn1` [Example 25, 5-bromo-2-[(6-methylpyridin-3-yl)carbamoyl]benzoic acid]: the inhibition at 50 µM turned out to be 70%.

Turning to `Cc1cccc(NC(=O)c2cc(Cl)ccc2C(=O)O)n1` [Example 11, 4-chloro-2-[(6-methylpyridin-2-yl)carbamoyl]benzoic acid], the inhibition at 50 µM came out at 69%.

For `Cc1cccc(NC(=O)c2c(C)cccc2C(=O)O)n1` [Example 16, 3-methyl-2-[(6-methylpyridin-2-yl)carbamoyl]benzoic acid], the inhibition at 50 µM was 43%.

`Cc1cccc(NC(=O)c2cccc(C)c2C(=O)O)n1` [Example 4, 2-methyl-6-[(6-methylpyridin-2-yl)carbamoyl]benzoic acid]: the inhibition at 50 µM was determined as 5%.

As for `Cc1cccc(NC(=O)c2ccc(-c3ccccc3)cc2C(=O)O)n1` [Example 10, 4-[(6-methylpyridin-2-yl)carbamoyl]-[1,1′-biphenyl]-3-carboxylic acid], the inhibition at 50 µM is 2%.

Consider `Cc1cccc(NC(=O)c2ccccc2C(=O)O)n1` [Example 3, 2-[(6-methylpyridin-2-yl)carbamoyl]benzoic acid], for which the inhibition at 50 µM is 15%.

As for `Cc1ccc(C(=O)O)c(C(=O)Nc2cccc(C)n2)c1` [Example 12, 4-methyl-2-[(6-methylpyridin-2-yl)carbamoyl]benzoic acid], the inhibition at 50 µM was 57%.

Regarding `CCC(C)NC(=O)c1ccc(Br)cc1C(=O)O` (stereo not drawn) [Example 17, 5-bromo-2-[(butan-2-yl)carbamoyl]benzoic acid], the inhibition at 50 µM was 30%.

`CC(C)NC(=O)c1ccc(Br)cc1C(=O)O` [Example 18, 5-bromo-2-[(propan-2-yl)carbamoyl]benzoic acid]: the inhibition at 50 µM is 35%.

Turning to `O=C(O)c1cc(Br)ccc1C(=O)Nc1ccccc1` [Example 19, 5-bromo-2-(phenylcarbamoyl)benzoic acid], the inhibition at 50 µM is 69%.

As to `Cc1cccnc1NC(=O)c1ccc(Br)cc1C(=O)O` [Example 24, 5-bromo-2-[(3-methylpyridin-2-yl)carbamoyl]benzoic acid], the inhibition at 50 µM turned out to be 64%.
